ChEMBL document CHEMBL1136097, “Synthesis of the first examples of A-C8/C-C2 amide-Linked pyrrolo[2,1-c][1,4]benzodiazepine dimers” (Bioorg Med Chem Lett, 2003)

What was measured:
[1] = In vitro inhibitory activity against human tumor cell line CHIcis; format: functional
A2780cisR = assay: In vitro inhibitory activity against human tumor cell line A2780cis; format: functional, cell-based
SK-OV-3 = assay: In vitro inhibitory activity against human tumor cell line SKOV-3; format: functional, cell-based
A2780 = assay: In vitro inhibitory activity against human tumor cell line A2780; format: functional, cell-based
[2] = In vitro inhibitory activity against human tumor cell line CHI; format: functional

Measured: IC50

COc1cc2c(cc1OC)C(=O)N1C=C(CC(=O)Nc3ccc4c(c3)N=C[C@@H]3CCCN3C4=O)C[C@H]1C=N2
> 25 µM: all assays above
